{"source": "patent US20240325544A1", "about": "“CATIONIC LIPID FOR COVALENT MODIFICATION OF PEPTIDES” (PharmalN Corporation, priority 2023, published 2024)", "key": {"C57BL/6J mice [1]": {"system": "C57BL/6J mice", "assay": "Bleomycin mouse model of idiopathic pulmonary fibrosis, alveolar area (FIG. 8)", "format": "in vivo", "conditions": "Day 21", "protocol": "FIGS. 8A-8B. […] Additionally, a normal control group (NC; n=3) without Bleo, and a Bleo Control group (n=7) without test article treatment were also included in this study. On Day 21 post Bleo administration, the mice were sacrificed under isoflurane anesthesia, and their lung tissues were harvested. FIG. 8B) A part of the lung tissue was fixed in 4% PFA, and Azan staining was performed, and alveolar areas (inversely proportional to the degree of fibrosis) were measured by Image J in a blinded setting. Error bars indicate standard error of the mean. Statistical analysis was performed by Student t-test on GraphPad Prism (n=3, 7, 7, 7, and 7); NC, Bleo Control, SEQ ID NO: 31, Pir, and Combo (SEQ ID NO: 31 & pirfenidone) *** P<0.001, ns=not significant vs NC.\nAnimal care and treatment: Male C57BL/6J mice (6 weeks-old) were purchased from Kyudo (Saga, Japan) and maintained under a 12-hour light/12-hour dark cycle with free access to water and standard mouse diet (MF diet, Oriental Yeast Co., Ltd. Tokyo, Japan). To induce lung fibrosis, mice received IT administration of bleomycin (Bleo; 1.0 mg/kg; Nippon Kayaku Tokyo, Japan). […] Alveolar area, which is inversely proportional to fibrotic area, were measured by Image J in a blinded setting (NIH, Bethesda, MD, USA)."}, "C57BL/6J mice [2]": {"system": "C57BL/6J mice", "assay": "Acute exacerbation of idiopathic pulmonary fibrosis (IPF-AE) model, bleomycin + LPS (FIG. 5)", "format": "in vivo", "conditions": "Bleo 1.0 mg/kg IT, LPS 0.025 mg/kg IT; 0.3 mg/kg SC day before, of and after LPS", "protocol": "FIGS. 5A-5E: The effect of cationic alkyl modified CNP derivatives in inflammation status of acute exacerbation of idiopathic pulmonary fibrosis (IPF-AE). Error bars indicate standard error of the mean. Increased inflammatory status in lung, especially increase of neutrophils, MCP1, IL-6, are seen in IPF-AE. Its decrease indicates resolution of IPF-AE. […] After 3 weeks, mice were treated with LPS (0.025 mg/kg IT) and treated SC with SEQ ID NO: 29 or 31 at 0.3 mg/kg (0.1 μmol/kg) the day before, of, and after LPS treatment as shown in the diagram. Additionally, a normal control (NC) group without LPS/Bleo treatment, a Bleo group without LPS treatment, and a Control group without test article treatment were also included. […]\nAnimal care and treatment: Male C57BL/6J mice (6 weeks-old) were purchased from Kyudo (Saga, Japan) and maintained under a 12-hour light/12-hour dark cycle with free access to water and standard mouse diet (MF diet, Oriental Yeast Co., Ltd. Tokyo, Japan). […] Lung weight/body weight ratio increase is a commonly measured parameter that indicates lung damage. […] The expression of MPO was assessed by Image J (NIH, Bethesda, MD, USA). […] Macrophage chemoattractant protein-1 (MCP1) was measured by using ELISA kit (R&D SYSTEMS, Minneapolis M N). […] The gene expression levels of IL-6 were measured with qRT-PCR-analysis by using cDNA synthesis kit (Qiagen; Venlo, the Netherlands). […]"}}, "note": "Bridge positions count the residues as written; N and C are the ends. Square brackets hold non-standard residues; d marks the D form. Peptide text beside a SMILES is read from it. * marks the point of attachment. Palmitoyl = CCCCCCCCCCCCCCCC(=O)*; Dap = NC[C@H](N)C(=O)O; AEEA = NCCOCCOCC(=O)O", "data": [{"smiles": "CCCCCCCCCCCCCCCC(=O)NCCOCCOCC(=O)NCCOCCOCC(=O)NCCOCCOCC(=O)N[C@@H](CN)C(=O)N[C@@H](CN)C(=O)NCC(=O)N[C@@H](CC(C)C)C(=O)N[C@@H](CO)C(=O)N[C@@H](CCCCN)C(=O)NCC(=O)N[C@H]1CSSC[C@@H](C(=O)O)NC(=O)CNC(=O)[C@H](CC(C)C)NC(=O)CNC(=O)[C@H](CO)NC(=O)[C@H](CCC(N)=O)NC(=O)[C@H](CO)NC(=O)CNC(=O)[C@H]([C@@H](C)CC)NC(=O)[C@H](CCCNC(=N)N)NC(=O)[C@H](CC(=O)O)NC(=O)[C@H](CC(C)C)NC(=O)[C@H](CCCCN)NC(=O)[C@H](CC(C)C)NC(=O)CNC(=O)[C@H](Cc2ccccc2)NC1=O", "note": "[SEQ ID NO: 31] ({Palmitoyl-AEEA-AEEA-AEEA}-[Dap][Dap]GLSKGCFGLKLDRIGSQSGLGC-OH; disulfide 8-24; C-terminus assumed)", "values": [{"measurement": "Alveolar area (inversely proportional to fibrosis)", "setting": "C57BL/6J mice [1]; alone, 0.3 mg/kg SC once a day on weekdays from day 7", "value": "significantly higher alveolar area"}, {"measurement": "Alveolar area (inversely proportional to fibrosis)", "setting": "C57BL/6J mice [1]; in combination with pirfenidone 100 mg/kg orally", "value": "significantly higher alveolar area"}, {"measurement": "MCP1 in lung", "setting": "C57BL/6J mice [2]", "value": "significant decrease of MCP1"}]}]}
